Assay results taken from ChEMBL document CHEMBL4842337, “Synthesis, computational docking and biological evaluation of celastrol derivatives as dual inhibitors of SERCA and P-glycoprotein in cancer therapy” (Eur J Med Chem, 2021).
Active and inactive are the calls of the source. The calls are words filed in the database; no cut-off is given here.

Experiments:
BEAS-2B = test: Antiproliferative activity against human BEAS-2B cells assessed as inhibition of cell proliferation measured after 72 hrs by MTT assay; type: functional, cell-based
A549 = test: Antiproliferative activity against human A549 cells assessed as inhibition of cell proliferation measured after 72 hrs by MTT assay; type: functional, cell-based; conditions: A549, 72 h
L02 [1] = test: Cytotoxicity against human L02 cells assessed as cell viability measured after 72 hrs by MTT assay; type: cell-based; conditions: L02, 72 h
HepG2 [2] = test: Antiproliferative activity against human HepG2 cells assessed as inhibition of cell proliferation measured after 72 hrs by MTT assay; type: functional, cell-based; conditions: HepG2, 72 h
[3] = Antiproliferative activity against human HePAD38 cells assessed as inhibition of cell proliferation measured after 72 hrs by MTT assay; type: functional, cell-based; conditions: HePAD38, 72 h
[4] = Selectivity index, ratio of IC50 for human CCD 19Lu cells to IC50 for human HepG2 cells; type: toxicity; conditions: CCD 19Lu cells versus HepG2 cells, read-out: Ratio IC50
HepG2 [5] = test: Induction of apoptosis in human HepG2 cells assessed as late apoptotic cells at 1 uM measured after 24 hrs by Annexin-V/PI staining based flow cytometry assay (reference value: 0.016%); type: functional
[6] = Selectivity index, ratio of IC50 for human L02 cells to IC50 for human HepG2 cells; type: toxicity; conditions: L02 cells versus HepG2 cells, read-out: Ratio IC50
HepG2 [7] = test: Induction of apoptosis in human HepG2 cells assessed as early apoptotic cells at 1 uM measured after 24 hrs by Annexin-V/PI staining based flow cytometry assay (reference value: 0.181%); type: functional
L02 [8] = test: Induction of apoptosis in human L02 cells assessed as early apoptotic cells at 1 uM measured after 24 hrs by Annexin-V/PI staining based flow cytometry assay (reference value: 1.49%); type: cell-based; conditions: l02, 24 h
[9] = Induction of apoptosis in human HePAD38 cells assessed as viable cells at 1 uM measured after 24 hrs by Annexin-V/PI staining based flow cytometry assay (reference value: 98.9%); type: functional; conditions: read-out: Activity
HeLa [10] = test: Inhibition of human SERCA in human HeLa cells assessed as alteration of calcium dynamics at 1 uM preincubated with compound C measured after 2 hrs by FLIPR calcium assay; type: cell-based
[11] = Induction of apoptosis in human HePAD38cells assessed as late apoptotic cells at 1 uM measured after 24 hrs by Annexin-V/PI staining based flow cytometry assay (reference value: 0.032%); type: functional, HePAD38
L02 [12] = test: Induction of apoptosis in human L02 cells assessed as late apoptotic cells at 1 uM measured after 24 hrs by Annexin-V/PI staining based flow cytometry assay (reference value: 0.133%); type: cell-based; conditions: l02, 24 h
[13] = Selectivity index, ratio of IC50 for human L02 cells to IC50 for human HePAD38 cells
[14] = Selectivity index, ratio of IC50 for human CCD 19Lu cells to IC50 for human HePAD38 cells
HeLa [15] = test: Inhibition of human SERCA in human HeLa cells assessed as alteration of calcium dynamics at 1 uM measured by FLIPR calcium assay; type: cell-based
[16] = Induction of apoptosis in human L02 cells assessed as viable cells at 1 uM measured after 24 hrs by Annexin-V/PI staining based flow cytometry assay (reference value: 97.5%); type: cell-based; conditions: read-out: Activity
L02 [17] = test: Induction of apoptosis in human L02 cells assessed as necrotic cells at 1 uM measured after 24 hrs by Annexin-V/PI staining based flow cytometry assay (reference value: 0.848%); type: cell-based; conditions: l02, 24 h
[18] = Induction of apoptosis in human HePAD38 cells assessed as early apoptotic cells at 1 uM measured after 24 hrs by Annexin-V/PI staining based flow cytometry assay (reference value: 0.158%); type: functional
HepG2 [19] = test: Induction of apoptosis in human HepG2 cells assessed as viable cells at 1 uM measured after 24 hrs by Annexin-V/PI staining based flow cytometry assay (reference value: 99.1%); type: functional; conditions: read-out: Activity
HepG2 [20] = test: Induction of apoptosis in human HepG2 cells assessed as necrotic cells at 1 uM measured after 24 hrs by Annexin-V/PI staining based flow cytometry assay (reference value: 0.725%); type: functional
HeLa [21] = test: Inhibition of human SERCA in human HeLa cells assessed as depletion of SERCA-dependent calcium storage at 1 uM preincubated with TG by FLIPR calcium assay; type: cell-based
[22] = Induction of apoptosis in human HePAD38 cells assessed as necrotic cells at 1 uM measured after 24 hrs by Annexin-V/PI staining based flow cytometry assay (reference value: 0.903%); type: functional

Row | SMILES | IC50 (BEAS-2B) [nM] | IC50 (A549) [µM] | IC50 (L02 [1]) [µM] | IC50 (HepG2 [2]) [nM] | IC50 [3] [µM] | selectivity ratio [4] | selectivity ratio [6] | Ratio IC50 [13] | Ratio IC50 [14] | other results
1 | CC1=C(O)C(=O)C=C2C1=CC=C1[C@@]2(C)CC[C@@]2(C)[C@@H]3C[C@](C)(C(=O)NCCCNC(=O)OC(C)(C)C)CC[C@]3(C)CC[C@]12C | 570 | 4.88 | 3.27 | 1950 | – | – | – | – | – | –
2 | CC1=C(O)C(=O)C=C2C1=CC=C1[C@@]2(C)CC[C@@]2(C)[C@@H]3C[C@](C)(C(=O)NC(CCC(=O)OC(C)(C)C)C(=O)OC(C)(C)C)CC[C@]3(C)CC[C@]12C (stereo not given in full) | 620 | 4.2 | 4.23 | 2520 | 1.54 | – | – | – | – | –
3 | CC1=C(O)C(=O)C=C2C1=CC=C1[C@@]2(C)CC[C@@]2(C)[C@@H]3C[C@](C)(C(=O)O)CC[C@]3(C)CC[C@]12C [CELASTROL] | 454 | 2.83 | 0.78 | 940 | 1.85 | 0.96 | 0.82 | 0.42 | 0.48 | Activity (HepG2 [5]): 10%; Activity (HepG2 [7]): 8.7%; Activity (L02 [8]): 12.9%; viability at 1 µM [9]: 75.3%; inhibition (HeLa [10]): Active; Activity [11]: 10.5%; Activity (L02 [12]): 15.5%; inhibition (HeLa [15]): Active; viability at 24 h, 1 µM [16]: 70.8%; Activity (L02 [17]): 0.823%; Activity [18]: 4.73%; viability at 1 µM (HepG2 [19]): 79.6%; Activity (HepG2 [20]): 1.61%; inhibition (HeLa [21]): Active; Activity [22]: 9.47%
4 | CC1=C(O)C(=O)C=C2C1=CC=C1[C@@]2(C)CC[C@@]2(C)[C@@H]3C[C@](C)(C(=O)NC(CC(=O)OC(C)(C)C)C(=O)NC(CCC(=O)OC(C)(C)C)C(=O)OC(C)(C)C)CC[C@]3(C)CC[C@]12C (stereo not given in full) | 6870 | 37.7 | 45.4 | 20300 | 17 | 0.51 | 2.23 | 2.67 | 0.61 | –
5 | CC1=C(O)C(=O)C=C2C1=CC=C1[C@@]2(C)CC[C@@]2(C)[C@@H]3C[C@](C)(C(=O)NC(CC(=O)OC(C)(C)C)C(=O)OC(C)(C)C)CC[C@]3(C)CC[C@]12C (stereo not given in full) | 3720 | 4.92 | 15.4 | 3560 | 11.8 | – | – | – | – | –
6 | CC1=C(O)C(=O)C=C2C1=CC=C1[C@@]2(C)CC[C@@]2(C)[C@@H]3C[C@](C)(C(=O)NC(CC(=O)NC(CCC(=O)OC(C)(C)C)C(=O)OC(C)(C)C)C(=O)OC(C)(C)C)CC[C@]3(C)CC[C@]12C (stereo not given in full) | 3220 | 19.3 | 30.2 | 8780 | 4.15 | 1.07 | 3.43 | 7.27 | 2.28 | –
7 | CC1=C(O)C(=O)C=C2C1=CC=C1[C@@]2(C)CC[C@@]2(C)[C@@H]3C[C@](C)(C(=O)NCCCNC(=O)[C@@]4(C)CC[C@@]5(C)CC[C@@]6(C)C7=CC=C8C(=CC(=O)C(O)=C8C)[C@@]7(C)CC[C@]6(C)[C@H]5C4)CC[C@]3(C)CC[C@]12C | 410 | 2.45 | 1.65 | 1170 | – | – | – | – | – | –
8 | COC(=O)CCNC(=O)[C@]1(C)CC[C@]2(C)CC[C@]3(C)C4=CC=C5C(=CC(=O)C(O)=C5C)[C@]4(C)CC[C@@]3(C)[C@@H]2C1 | 320 | 1.91 | 0.55 | 1040 | – | – | – | – | – | –
9 | CC1=C(O)C(=O)C=C2C1=CC=C1[C@@]2(C)CC[C@@]2(C)[C@@H]3C[C@](C)(C(=O)NC(CCC(=O)N(CC(=O)OC(C)(C)C)C(=O)OC(C)(C)C)C(=O)OC(C)(C)C)CC[C@]3(C)CC[C@]12C (stereo not given in full) | 1330 | 3.4 | 2.34 | 1540 | 2.55 | 5.96 | 1.52 | 0.91 | 3.4 | –
10 | CC1=C(O)C(=O)C=C2C1=CC=C1[C@@]2(C)CC[C@@]2(C)[C@@H]3C[C@](C)(C(=O)NC(CCC(=O)NC(CCC(=O)OC(C)(C)C)C(=O)OC(C)(C)C)C(=O)OC(C)(C)C)CC[C@]3(C)CC[C@]12C (stereo not given in full) | 38600 | 6.19 | 9.55 | 4270 | 4.74 | 13.4 | 2.23 | 2.01 | 12 | Activity (HepG2 [5]): 11%; Activity (HepG2 [7]): 1.55%; Activity (L02 [8]): 6.2%; viability at 1 µM [9]: 80.3%; inhibition (HeLa [10]): Active; Activity [11]: 4.17%; Activity (L02 [12]): 5.44%; inhibition (HeLa [15]): Active; viability at 24 h, 1 µM [16]: 86.7%; Activity (L02 [17]): 1.64%; Activity [18]: 1.85%; viability at 1 µM (HepG2 [19]): 80.2%; Activity (HepG2 [20]): 7.33%; inhibition (HeLa [21]): Active; Activity [22]: 13.7%
11 | CC1=C(O)C(=O)C=C2C1=CC=C1[C@@]2(C)CC[C@@]2(C)[C@@H]3C[C@](C)(C(=O)NC(CC(=O)NC(CC(=O)OC(C)(C)C)C(=O)OC(C)(C)C)C(=O)OC(C)(C)C)CC[C@]3(C)CC[C@]12C (stereo not given in full) | 2180 | 9.85 | 19.1 | 7980 | 4.54 | 0.61 | 2.39 | 4.21 | 1.07 | –
12 | CC1=C(O)C(=O)C=C2C1=CC=C1[C@@]2(C)CC[C@@]2(C)[C@@H]3C[C@](C)(C(=O)NC(CC(=O)OC(C)(C)C)C(=O)NC(CC(=O)OC(C)(C)C)C(=O)OC(C)(C)C)CC[C@]3(C)CC[C@]12C (stereo not given in full) | 786 | 2.75 | 5.61 | 1220 | 0.44 | 1.81 | 4.6 | 12.75 | 5 | Activity (HepG2 [5]): 14.5%; Activity (HepG2 [7]): 3.45%; Activity (L02 [8]): 3.62%; viability at 1 µM [9]: 73.6%; inhibition (HeLa [10]): Active; Activity [11]: 18.5%; Activity (L02 [12]): 11.7%; inhibition (HeLa [15]): Active; viability at 24 h, 1 µM [16]: 82.6%; Activity (L02 [17]): 2.14%; Activity [18]: 2.27%; viability at 1 µM (HepG2 [19]): 69.7%; Activity (HepG2 [20]): 12.4%; inhibition (HeLa [21]): Active; Activity [22]: 5.58%
